US20210361549A1, “ANTIPERSPIRANT” (MANDOM CORPORATION, priority 2018, published 2021)

Assays:
[1] = system: secretory duct of the sweat gland (whole sweat glands); assay: Test Example 1: time-lapse imaging of isolated whole sweat glands, moving distance of nuclei after pyrocarpin stimulation; assay type: cell-based, human; settings: for movement of the secretory duct of the sweat gland: observed in the time-lapse photographed image, antiperspirant contacted with whole sweat glands
Method: As skin tissues, skin tissues which were refrigerated immediately after isolating from living donors and stored at 4° C. for 15 hours were used. The skin tissues were immersed in PBS containing 10 μM staining agent (Neutral Red), to label the sweat glands included in the skin tissues. Next, the dermis of each of the skin tissues including the staining agent was finely cut to obtain dermal segments. Whole sweat glands were collected from the dermal segments by using tweezers under an optical microscope.
The whole sweat glands obtained in Test Example 1(1) were immersed in the staining reagent mixture obtained in Production Example 1 at room temperature (24° C.) for 30 minutes, to stain the whole sweat glands. The stained whole sweat glands were washed with PBS.
The washed whole sweat glands obtained in Test Example 1(2) were allowed to stand on a glass bottom dish under a stereoscopic microscope manufactured by Leica under the trade name of M125. The collagen-containing liquid obtained in Production Example 2 was added dropwise to the whole sweat glands that were allowed to stand on the glass bottom dish. Next, the above-mentioned glass bottom dish was incubated at 37° C. for 5 minutes to gelate the collagen type I-A contained in the collagen-containing liquid placed on the whole sweat glands. Thereafter, 300 μL of PBS was added onto the above-mentioned whole sweat glands so as not to dry the whole sweat glands. Thus, the whole sweat glands were held on the glass bottom dish used as a support with the collagen type I-A so that the position of each of the whole sweat glands was retained, to obtain an observation sample.
While adhesion of the whole sweat glands to the glass bottom dish with the gelated collagen type I-A was confirmed under the stereoscopic microscope, an aliquot of Dulbecco's phosphate buffer [manufactured by Gibco, Catalog No. 14190-144] was added to the glass bottom dish used as a support.
The antiperspirant obtained in Example 1 in an amount of 3 μL was contacted with the whole sweat glands on the glass bottom dish in the observation sample. The observation of the whole sweat glands on the glass bottom dish with the time-lapse imaging was initiated by using a confocal laser scanning microscope for biological uses [inverted microscope manufactured by Olympus Corporation under the trade name of IX-83 equipped with a device manufactured by Olympus Corporation under the trade name of FV 1200]. At that time, the whole sweat glands were visualized by detecting fluorescence derived from the nuclear staining reagent bound to the nuclei and fluorescence derived from the cytoskeleton-staining reagent bound to the cytoskeleton. After 600 seconds passed from the initiation of the observation, 30 μL of the sweat gland-stimulating agent obtained in Production Example 3 was contacted with the whole sweat glands on the glass bottom dish, and thereafter the observation with the time-lapse imaging was continued. […]
Next, five cells were selected from a cell group in the lumen of the secretory duct in the time-lapse photographed image of the whole sweat glands, and five cells were selected from a cell group in the outer periphery of the secretory duct. […] In order to measure a moving distance of the nuclei of the cell, firstly changes (differences) in coordinates between consecutive frames were calculated by using X-coordinate and Y-coordinate of the nuclei of each cell in accordance with the formulae (XI) and (XII): […]

[2] = system: armpit sweating of expert panelists; assay: Test Example 3: degree of sweating scored by expert panelists after application to armpit and light exercise; assay type: in vivo, human; settings: applied to each armpit of ten expert panelists, light exercise; compared with control sample of Comparative Example 1 (PBS)
Excerpt: The antiperspirant obtained in Example 1 is applied to each armpit of ten expert panelists having the same proficiency in evaluation skill, and then the expert panelists are subjected to a light exercise. Thereafter, each of the expert panelists gives a score of the degree of sweating on the basis of the following criteria for evaluation. In addition, each of the expert panelists gives a score of the degree of sweating in the same manner as in the above except that the control sample of Comparative Example 1 is used in place of the antiperspirant obtained in Example 1. The average of the scores given by the expert panelists is calculated.
0 point: sweat in a large amount.
2 points: slightly sweat.

[3] = system: secretory duct of the sweat gland (whole sweat glands); assay: Test Example 2: time-lapse imaging of isolated whole sweat glands, average moving distance of nuclei of secretory duct cells; assay type: cell-based, human; settings: antiperspirant as prepared contacted first; stimulating agent of Production Example 4 (10 mM pyrocalpin); five cells; FIG. 3 to FIG. 8
Method: Each of the antiperspirants obtained in Examples 2 to 7 was contacted with the whole sweat glands respectively, and change of the average of moving distances of nuclei of cells of a secretory duct of the sweat gland was examined with passage of time. Whether or not nuclei of cells of the secretory duct of the sweat gland moved was determined based on the results shown in FIG. 3 to FIG. 8, and evaluated in accordance with the following criteria for evaluation. […] The maximum value of the average of moving distances of nuclei of cells of the secretory duct of the sweat gland exceeds 1 μm: the nuclei of cells of the secretory duct of the sweat glands are moved.

Molecule	movement of the secretory duct of the sweat gland [1]	average of the scores of the degree of sweating (0 to 4 points) [2]	movement of nuclei of cells of the secretory duct of the sweat gland (maximum of average of moving distances) [3]	further results
CC1(C(=O)O)CCC2(C)CCC3(C)C(=CC(=O)C4C5(C)CCC(OC(=O)CCC(=O)O)C(C)(C)C5CCC43C)C2C1 (centres unmarked) [Example 1]	suppressed	tends to be higher	–	movement of nuclei of the cells of the lumen of the secretory duct of the sweat gland ([1]; 3 μL antiperspirant contacted first, 30 μL sweat gland-stimulating agent (100 mM pyrocarpin) after 600 seconds, FIG. 2A white circle): hardly moved; movement of nuclei of the cells of the outer periphery of the secretory duct of the sweat gland ([1]; 3 μL antiperspirant contacted first, 30 μL sweat gland-stimulating agent (100 mM pyrocarpin) after 600 seconds, FIG. 2A white triangle): hardly moved
CC1(C)[C@@H](O)CC[C@]2(C)[C@H]3C(=O)C=C4[C@H]5C[C@@](C)(C(=O)O)CC[C@]5(C)CC[C@@]4(C)[C@]3(C)CC[C@@H]12 [Example 2, 18α-glycyrrhetinic acid]	–	–	hardly moved	–
CC1(C)[C@@H](O)CC[C@]2(C)[C@H]3C(=O)C=C4[C@@H]5C[C@@](C)(C(=O)O)CC[C@]5(C)CC[C@@]4(C)[C@]3(C)CC[C@@H]12 [Example 3, 18β-glycyrrhetinic acid]	–	–	hardly moved	–
C[C@H]1[C@H](C)CC[C@]2(C(=O)O)CC[C@]3(C)C(=CC[C@@H]4[C@@]5(C)CC[C@H](O)C(C)(C)[C@@H]5CC[C@]43C)[C@H]12 [Example 4, ursolic acid]	–	–	hardly moved	–
CC1(C)CC[C@]2(C(=O)O)CC[C@]3(C)C(=CC[C@@H]4[C@@]5(C)CC[C@H](O)C(C)(C)[C@@H]5CC[C@]43C)[C@@H]2C1 [Example 5, oleanolic acid]	–	–	hardly moved	–
CC1(C(=O)O)CCC2(C)CCC3(C)C(=CC(=O)C4C5(C)CCC(O)C(C)(C)C5CCC43C)C2C1 (centres unmarked) [formula (IX)]	the same tendency as the antiperspirant obtained in Example 1	the same tendency as the antiperspirant obtained in Example 1	–	–
CC1(C(=O)O)CCC2(C)CCC3(C)C(=CC(=O)C4C5(C)CCC(OC6OC(C(=O)O)C(O)C(O)C6OC6OC(C(=O)O)C(O)C(O)C6O)C(C)(C)C5CCC43C)C2C1 (centres unmarked) [formula (X)]	the same tendency as the antiperspirant obtained in Example 1	the same tendency as the antiperspirant obtained in Example 1	–	–
α-amylin [Example 6]	–	–	hardly moved	–
β-amylin [Example 7]	–	–	hardly moved	–
